{
  "source": "patent US20190284168A1",
  "about": "“PYRAZOLE DERIVATIES AS SGC STIMULATORS” (IRONWOOD PHARMACEUTICALS, INC., priority 2014, published 2019)",
  "key": {"Sprague-Dawley Rats": {"test_system": "Sprague-Dawley Rats", "assay": "Blood pressure change in Sprague-Dawley rats", "type": "in vivo, rat", "settings": "10 mpk PO, conscious Sprague-Dawley rats", "experimental": "Male rats (250-350 g body weight, supplied by Harlan Laboratories) were anesthetized with ketamine/xylazine and a heparinized saline fluid filled catheter implanted into the right femoral artery. The catheter was exteriorized between the scapula, capped, and the animal allowed to recover for at least 7 days post surgery prior to any compound testing. Prior to testing animals were maintained on normal diet, with free access to drinking water, under a 12 hour light-dark cycle.\nOn the day of experimentation, under inhaled isoflurane anesthesia, the catheter was uncapped and connected to a tether (Instech Labs) and pressure transducer (Harvard Apparatus). Blood pressure and heart rate were subsequently captured and analyzed with a dedicated data capture system (PowerLab, ADInstruments). Data sampling rates were set at 1 cycle per second. Once connected, each rat was allowed to recover from anesthesia and baseline blood pressure and heart rate levels were established in these conscious, freely-moving animals. Once baseline was established either vehicle (0.5% methylcellulose or 100% PEG400) or test article was administered orally (PO, 10 mg/kg) and the effects on blood pressure and heart rate monitored for up to 24 hours.\nData are reported as hourly averages and changes in blood pressure are calculated from subtracting individual baseline on an hourly basis (Table 4)"}, "[1]": {"biological_target": "T1, soluble guanylate cyclase (sGC) (Homo sapiens, UniProt Q02108+Q02153)", "T1 construct": "endogenously expressing soluble guanylate cyclase (sGC); endogenous in cells; host or cells: HEK293", "T1 sequence (Q02153 1-619)": "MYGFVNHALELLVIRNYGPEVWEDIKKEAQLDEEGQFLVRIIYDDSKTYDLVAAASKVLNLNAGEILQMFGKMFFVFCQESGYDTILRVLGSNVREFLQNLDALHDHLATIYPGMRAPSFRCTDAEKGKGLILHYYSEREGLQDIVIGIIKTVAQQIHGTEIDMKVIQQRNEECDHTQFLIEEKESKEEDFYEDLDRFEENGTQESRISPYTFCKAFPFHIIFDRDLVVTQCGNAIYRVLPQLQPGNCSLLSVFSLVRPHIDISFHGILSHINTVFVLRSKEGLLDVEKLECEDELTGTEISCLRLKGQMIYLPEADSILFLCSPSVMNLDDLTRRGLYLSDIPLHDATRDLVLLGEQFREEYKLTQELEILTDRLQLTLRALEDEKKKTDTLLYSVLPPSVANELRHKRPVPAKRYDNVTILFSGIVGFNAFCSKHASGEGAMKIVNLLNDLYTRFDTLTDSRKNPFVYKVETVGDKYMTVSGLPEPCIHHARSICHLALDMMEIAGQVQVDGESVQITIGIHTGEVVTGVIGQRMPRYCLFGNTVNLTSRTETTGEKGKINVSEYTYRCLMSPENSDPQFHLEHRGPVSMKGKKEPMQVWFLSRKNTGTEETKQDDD", "T1 sequence (Q02108 1-690)": "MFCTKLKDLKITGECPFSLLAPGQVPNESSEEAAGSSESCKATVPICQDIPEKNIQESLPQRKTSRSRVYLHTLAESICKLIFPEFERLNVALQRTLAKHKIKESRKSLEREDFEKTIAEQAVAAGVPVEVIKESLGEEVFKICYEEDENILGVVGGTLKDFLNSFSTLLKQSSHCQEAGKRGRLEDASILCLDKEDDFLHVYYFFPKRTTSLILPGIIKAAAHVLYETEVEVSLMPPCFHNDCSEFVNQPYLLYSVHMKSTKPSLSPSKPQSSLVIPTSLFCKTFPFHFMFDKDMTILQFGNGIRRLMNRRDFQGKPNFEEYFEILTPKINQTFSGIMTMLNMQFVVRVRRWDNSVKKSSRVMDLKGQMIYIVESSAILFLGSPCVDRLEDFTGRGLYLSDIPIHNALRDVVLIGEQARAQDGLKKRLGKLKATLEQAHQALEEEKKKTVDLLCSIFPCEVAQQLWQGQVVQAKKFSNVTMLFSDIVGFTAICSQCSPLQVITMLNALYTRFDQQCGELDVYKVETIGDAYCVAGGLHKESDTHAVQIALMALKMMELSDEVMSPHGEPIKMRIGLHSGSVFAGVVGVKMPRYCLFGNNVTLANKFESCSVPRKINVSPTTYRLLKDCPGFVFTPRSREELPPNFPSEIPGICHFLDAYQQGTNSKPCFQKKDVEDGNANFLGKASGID", "assay": "sGC-HEK-cGMP assay with LC/MS detection", "type": "cell-based", "settings": "HEK293 whole cells, LC/MS detection of cGMP, 10 μM DETA-NONOate; 50% of high control response (30 μM Compound Y); read-out: Absolute EC50 (nM)- binned (~)", "description": "Human embryonic kidney cells (HEK293), endogenously expressing soluble guanylate cyclase (sGC), were used to evaluate the activity of test compounds. Compounds stimulating the sGC enzyme should cause an increase in the intracellular concentration of cGMP. HEK 293 cells were seeded in Dulbecco's Modification of Eagle's Medium supplemented with fetal bovine serum (10% final) and penicillin (100 U/mL)/streptomycin (100 μg/mL) in a 50 μL volume at a density of 1.5×10^4 cells/well in a poly-D-lysine coated 384 well flat bottom plate. Cells were incubated overnight at 37° C. in a humidified chamber with 5% CO2. Medium was aspirated and cells were washed with 1× Hank's Buffered Saline Salt Solution (50 μL). Cells were then incubated for 15 minutes at 37° C. with 50 μL of a 0.5 mM 3-isobutyl-1-methylxanthine (IBMX) solution.\nwere then added to the assay mixture and the resulting mixture incubated at 37° C. for 20 minutes. After the 20 minute incubation, the assay mixture was aspirated and 10% acetic acid containing 150 ng/mL+3-cGMP (internal standard for LCMS) (50 μL) was added to the cells. The plate was incubated at 4° C. for 30 minutes in the acetic acid solution to stop the reaction and lyse the cells. The plates were then centrifuged at 1,000 g for 3 minutes at 4° C. and the supernatant transferred to a clean reaction plate for LCMS analysis.\ncGMP concentrations were determined from each sample using the LCMS conditions below (Table 2) and calculated standard curve.\nData were fit using a 4-parameter fit (log(agonist) vs. response—variable slope) using GraphPad Prism Software v.5. n=2 for all compounds. […] Compounds failing to elicit a minimum response of 50% are reported as >30 μM."}, "NO-defficient rats": {"test_system": "NO-defficient rats", "settings": "NO-deficient rats; cited from earlier work"}, "[2]": {"test_system": "adult sickle cell disease patients", "settings": "infusions; cited from earlier work"}, "[3]": {"test_system": "Guinea pig tracheal smooth muscle", "assay": "Electrical field stimulated guinea pig tracheal smooth muscle contraction", "settings": "guinea pig tracheal strips, sub-maximal EFS; 95% CI 0.78-0.94; read-out: IC50, inhibition of EFS-induced tracheal smooth muscle contraction", "text": "It is possible to assess the bronchodilating effects of sGC stimulators by using the system described below. This system allows us to determine potency, efficacy and duration of action of several sGC stimulators, as well as to assess potential side effects such as blood pressure, or heart rate changes.\nAnimals: Guinea pig, Dunkin Hartley, male, Full barrier-bred and certified free of specific micro-organisms on receipt 525-609 g on the experimental day, Harlan UK Ltd. Guinea pigs are housed in a group of 4 in solid-bottomed cages with Gold Flake bedding in a controlled environment (airflow, temperature and humidity). Food (FD1, Special Diet Services) and water are provided ad libitum.\nOn each experimental day, a guinea pig is killed by exposure to a rising concentration of CO2 and the trachea removed. […] Tissues are washed with Kreb's buffer and stimulated using the previously determined sub-maximal voltage for 1 hour to establish a stable baseline contraction prior to assessment of compound activity.\nA cumulative dose response curve (DRC) to each test substance is then performed and changes in smooth muscle contraction measured. The effect of each test substance in each experiment is expressed as a percentage inhibition of the baseline contraction, normalized to the relevant vehicle controls. […]"}, "sickle mice": {"test_system": "sickle mice", "settings": "oral, high doses; cited from earlier work"}, "[4]": {"test_system": "sickle cell disease patients with severe PHT", "settings": "cited from earlier work"}, "mdx mouse": {"test_system": "mdx mouse", "settings": "cited from earlier work"}, "[5]": {"test_system": "adult patients with sickle cell disease", "settings": "acute VOE, vs placebo; cited from earlier work"}, "obese mice": {"test_system": "obese mice", "settings": "cited from earlier work"}},
  "data": [
    {"compound": "Fc1cnc(-c2cc(-c3ccon3)n(Cc3ccccc3F)n2)nc1", "note": "[Compound 109]", "values": [
      {"measurement": "Rat Mean Arterial Pressure peak change from baseline (at 3 or 10 mpk@)", "setting": "Sprague-Dawley Rats", "result": "B (B = −20 ≤ peak change from baseline at 3 or 10 mpk ≤ −10)"},
      {"measurement": "EC50", "setting": "[1]", "result": "100 to 1000", "unit": "nM"}
    ]},
    {"compound": "Nc1nc(-c2nn(Cc3ccccc3F)c3ncccc23)ncc1C1CC1", "note": "[BAY-2272]", "values": [
      {"measurement": "bladder dysfunction", "setting": "NO-defficient rats", "result": "protective effects"}
    ]},
    {"compound": "O=NO", "note": "[sodium nitrite]", "values": [
      {"measurement": "forearm blood flow", "setting": "[2]", "result": "enhanced forearm blood flow"}
    ]},
    {"compound": "CC(C)[N+]1(C)[C@@H]2CC[C@H]1CC(OC(=O)C(CO)c1ccccc1)C2", "note": "(some centres unmarked) [Ipratropium bromide, ipratropium bromide]", "values": [
      {"measurement": "IC50", "setting": "[3]", "result": 0.86, "unit": "nM"}
    ]},
    {"compound": "N=C(N)NCCC[C@H](N)C(=O)O", "note": "[L-arginine, arginine]", "values": [
      {"measurement": "Gardos channel activity, dense cell formation and hemolysis", "setting": "sickle mice", "result": "decrease Gardos channel activity, dense cell formation and hemolysis"}
    ]},
    {"compound": "CCCc1nn(C)c2c(=O)[nH]c(-c3cc(S(=O)(=O)N4CCN(C)CC4)ccc3OCC)nc12", "note": "[sildenafil, Sildenafil]", "values": [
      {"measurement": "serious side effects (VOE, headache, visual disturbance)", "setting": "[4]; Walk-PHaSST multicenter trial, stopped prematurely", "result": "higher frequency of serious side effects"},
      {"measurement": "PAP and exercise capacity", "setting": "[4]; sickle cell disease patients with severe PHT", "result": "improvements in PAP and exercise capacity"},
      {"measurement": "muscle ischemia, injury and fatigue after a brief bout of exercise", "setting": "mdx mouse", "result": "alleviate muscle ischemia, as well as injury and fatigue"}
    ]},
    {"compound": "nitric oxide [inhaled NO]", "values": [
      {"measurement": "pain scores", "setting": "[5]", "result": "significantly reduced pain scores"}
    ]},
    {"compound": "O=C(O)CCCCN(CCc1cc(F)ccc1OCc1ccc(-c2ccc(C(F)(F)F)cc2)cc1)Cc1ccc(C(=O)O)cc1", "note": "[BAY 60-2770]", "values": [
      {"measurement": "overactive bladder", "setting": "obese mice", "result": "ameliorates overactive bladder"}
    ]}
  ]
}
